Measured values as given in article PMC9516243, “Design of stapled peptide-based PROTACs for MDM2/MDMX atypical degradation and tumor suppression” (Theranostics, 2022).
Positions of bridges follow the written chain, without caps; N, C: chain ends. Non-standard residues stand in square brackets, D forms with d. Residues, ends and D or L forms follow the SMILES beside them. Hyp = O=C(O)[C@@H]1C[C@@H](O)CN1; R8 = C=CCCCCCC[C@@](C)(N)C(=O)O; hLeu = CC(C)CC[C@H](N)C(=O)O; S5 = C=CCCC[C@](C)(N)C(=O)O; AEA = NCCOCC(=O)O

Key:
^24-108MDMX = molecular target: T1, ^24-108MDMX (Homo sapiens, UniProt O15151); test: FP-based competitive binding assay; conditions: MDMX 40 nM, fluorescently tagged p53 peptide 20 nM, PBS pH 7.4, 30 min room temperature; mean of three independent measurements
T1 construct: ^24-108MDMX, and a fluorescently tagged p53-derived peptide
T1 sequence (O15151 24-108): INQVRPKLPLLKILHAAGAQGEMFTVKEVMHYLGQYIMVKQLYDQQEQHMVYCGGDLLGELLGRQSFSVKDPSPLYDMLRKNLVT
Method: (§1) An FP-based competitive or binding assay was established using ^25-109MDM2, ^24-108MDMX, and a fluorescently tagged p53-derived peptide as previously described. [34]-[36] For dose-dependent competitive binding experiments, MDM2 or MDMX protein (40 nM) was first incubated with TAMRA-p53 peptide (20 nM) in PBS (pH 7.4) on a Costar 96-well plate, to which a serially diluted solution of test peptide was added to a final volume of 125 μL. After 30 min of incubation at room temperature, the FP values were measured at λex = 530 nm and λem = 580 nm on a Tecan Infinite M1000 plate reader. For binding experiments, FITC-labeled SPMI-HIF2-1 (20 nM) was incubated with different concentrations of MDM2, MDMX, and VHL proteins. Curve fitting was performed using GraphPad Prism software, and Ki values were calculated as described previously. Three replicates and three independent experiments were performed.

^25-109MDM2 = molecular target: T2, ^25-109MDM2 (Homo sapiens, UniProt Q00987); test: FP-based competitive binding assay; conditions: MDM2 40 nM, fluorescently tagged p53 peptide 20 nM, PBS pH 7.4, 30 min room temperature; mean of three independent measurements
T2 construct: established using ^25-109MDM2, ^24-108MDMX
Method: as §1

[1] = α-Helicity by CD spectroscopy; format: physicochemical; conditions: PB pH 7.2, 10-50 µM peptide, 20°C, calculated from [θ]222
Method: Peptides were dissolved in PB (pH = 7.2) to concentrations ranging from 10 to 50 µM. CD spectra were obtained on a Jasco J-715 spectropolarimeter at 20°C. The spectra were collected using a 0.1 cm path length quartz cuvette with the following measurement parameters: wavelength, 185-255 nm; step resolution, 0.1 nm; speed, 20 nm/min; accumulations, 6; bandwidth, 1 nm. The helical content of each peptide was calculated as reported previously.

circular dichroism = conditions: phosphate buffer (PB); pH 7.2; 20 °C; 10-50 uM
[2] = test system: HCT-116 subcutaneous xenograft; test: Subcutaneous HCT-116 xenograft model; format: in vivo, BALB/c nude mice
Method: Four-week-old male BALB/c nude mice (15-20 g) were used to establish subcutaneous and orthotopic xenograft models. A total of 5 × 10^6 HCT-116 cells were subcutaneously inoculated into the right flanks of the mice. Tumor volume was calculated using the following formula: V = (L × W^2)/2, where L is the length and W is the width of the tumor nodules measured with a vernier caliper. […] Drugs were intravenously injected into the mice every 2 days for 2 weeks. In addition, the model of orthotopic CRC xenografts was established. Briefly, mice were anesthetized after fasting for 12 h. Subsequently, the distal anal and rectal mucosa were exposed, and transanal injection of HCT-116 cells (5 × 10^6) was performed using a 30 G sterile needle. The injection was given directly into the rectal mucosa. Tumor growth was investigated, and once the tumors reached ~0.5 cm in size, the mice were randomly divided into two groups. The mice were treated every other day for 2 weeks with tail vein injections of either vehicle (saline) or sPMI-HIF2-1 (2 mg/kg). Body weight was measured before saline or drug injection. All mice were euthanized on day 14 following drug treatment, and the tumors were isolated, photographed, weighed, and measured.

[3] = 10 mg/kg i.v. tail vein every other day for 2 weeks, tumor volume

CC(=O)N[C@H](C(=O)N[C@@H](CO)C(=O)N[C@@H](Cc1ccccc1)C(=O)N[C@]1(C)CCCCCCC=CCCC[C@@](C)(C(=O)NCCOCC(=O)N[C@@H](CC(C)C)C(=O)N[C@@H](C)C(=O)N2C[C@H](O)C[C@H]2C(=O)N[C@@H](Cc2ccc(O)cc2)C(=O)N[C@@H](CCC(C)C)C(=O)N2CCC[C@H]2C(N)=O)NC(=O)[C@H](CC(C)C)NC(=O)[C@H](CC(C)C)NC(=O)[C@H](C)NC(=O)[C@H](Cc2c[nH]c3ccccc23)NC(=O)[C@H](Cc2ccc(O)cc2)NC(=O)[C@H](CCC(=O)O)NC1=O)[C@@H](C)O [SPMI-HIF2-1] (Ac-TSF[R8]EYWALL[S5][AEA]LA[Hyp]Y[hLeu]P-NH2; staple 4-11)
Ki (^24-108MDMX): 530 nM
Ki (^25-109MDM2): 350 nM
α-helicity (%) [1]: 37%
helicity (circular dichroism): 37%
body weight ([2]; 10 mg/kg i.v. every other day for 2 weeks): no obvious changes in body weight
inhibition of tumor growth, enhanced compared to the 50 mg/kg PMI-HIF1-1 group [2, 3]: 3 fold
inhibition of tumor growth, enhanced compared to the control group [2, 3]: 5 fold
